Measured values from patent publication EP2435433B1, “(DIHYDRO)IMIDAZOISO[5,1-A]QUINOLINES AS FSH RECEPTOR AGONISTS FOR THE TREATMENT OF FERTILITY DISORDERS” (Merck Sharp & Dohme B.V., priority 2009, dated 2010).

Target: T1, human FSH receptor (Homo sapiens, UniProt P23945)
T1 construct: expressed in transfected cells; host or cells: Chinese Hamster Ovary (CHO) cells, stably transfected, cotransfected with CRE/promotor-firefly luciferase reporter
T1 sequence (P23945 18-695): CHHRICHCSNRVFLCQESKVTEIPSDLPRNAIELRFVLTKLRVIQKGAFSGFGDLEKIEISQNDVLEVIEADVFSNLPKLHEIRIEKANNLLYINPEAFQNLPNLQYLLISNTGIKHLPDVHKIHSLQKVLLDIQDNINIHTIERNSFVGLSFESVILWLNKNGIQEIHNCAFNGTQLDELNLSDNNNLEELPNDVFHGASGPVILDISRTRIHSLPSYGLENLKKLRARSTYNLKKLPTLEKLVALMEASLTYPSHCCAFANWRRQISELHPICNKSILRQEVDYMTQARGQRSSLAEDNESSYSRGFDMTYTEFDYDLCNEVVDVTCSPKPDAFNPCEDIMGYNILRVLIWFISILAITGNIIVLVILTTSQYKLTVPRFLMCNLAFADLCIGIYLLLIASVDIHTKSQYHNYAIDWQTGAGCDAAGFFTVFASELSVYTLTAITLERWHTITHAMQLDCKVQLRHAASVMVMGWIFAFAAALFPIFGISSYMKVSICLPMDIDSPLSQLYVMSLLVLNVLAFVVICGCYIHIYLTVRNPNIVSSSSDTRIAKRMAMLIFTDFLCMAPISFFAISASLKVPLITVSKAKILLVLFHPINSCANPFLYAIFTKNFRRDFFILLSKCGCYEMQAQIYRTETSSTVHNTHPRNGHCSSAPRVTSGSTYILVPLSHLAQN
Assay: Agonistic activity of compounds at the human FSH receptor expressed in CHO cells, CRE/luciferase reporter (hFSHRago (CHO luc))
Type: cell-based
Details: CHO cells stably transfected with the human FSH receptor and CRE/firefly luciferase reporter; 4 hours of incubation; half-maximal stimulation relative to the compound's own maximal effect; read-out: hFSHRago (CHO luc) EC50
Description: The term EC50 means the concentration of the test compound that elicits half-maximal (50 %) stimulation compared to the compound's maximally attainable effect. The values can be determined e.g. in a cell line transfected with a FSH receptor gene and cotransfected with a cAMP responsive element/promoter directing the expression of a reporter gene. Values can be determined using a software program such as MathIQ (version 2.0, ID Business Solutions Limited).
Agonistic activity of the compounds at the human FSH receptor was determined in Chinese Hamster Ovary (CHO) cells stably transfected with the human FSH receptor and cotransfected with a cAMP responsive element (CRE)/promotor directing the expression of a firefly luciferase reporter gene. Binding of the compounds to the Gs protein-coupled FSH receptor will result in an increase of cAMP, which in turn will induce an increased transactivation of the luciferase reporter. Cells (7,500 cells/well of a 384 well plate) were incubated in Dulbecco' minimal essential F12 modified medium (Invitrogen), supplemented with 1 µg/ml bovine insulin, 5 µg/ml human apo-transferrin, 80 U/ml penicillin G and 80 µg/ml streptomycin with the test compounds (concentration between 0.0316 nM and 10.0 µM) in duplicate in a humidified atmosphere (95%) at 5-7% CO2 and 37°C. The final concentration of DMSO was 1%. After 4 hours of incubation, plates were allowed to adjust to room temperature for 1 hour. Then, Luclite (PerkinElmer) solution was added to the wells and cells were allowed to lyse for at least 1 hour at room temperature. Subsequently, luciferase activity was measured in a luminescence counter. The signal is expressed as counts per second (cps). The EC50 (concentration of the test compound that elicits half-maximal (50 %) luciferase stimulation compared to the compound's maximally attainable effect) and efficacy values (maximal effect of the test compound as percentage of the maximal effect of recombinant human FSH) of the compounds were determined using the software program MathIQ (version 2.0, ID Business Solutions Limited). EC50 data are indicated at the synthesis examples.

| SMILES | EC50 |
| --- | --- |
| COc1cc2c(cc1Br)-c1c(-c3cccs3)nc(C(=O)N(C)C(C)(C)C)n1CC2 [Example 1j, 9-Bromo-8-methoxy-1-thiophen-2-yl-5,6-dihydro-imidazo[5,1-a]isoquinoline-3-carboxylic acid tert-butyl-methyl-amide] | 0.036 µM |
| COc1cc2c(cc1NC(=O)CN1CCOCC1)-c1c(-c3cccs3)nc(C(=O)N(C)C(C)(C)C)n1CC2 [Example 14, 8-Methoxy-9-(2-morpholin-4-yl-acetylamino)-1-thiophen-2-yl-5,6-dihydro-imidazo[5,1-a]isoquinoline-3-carboxylic acid tert-butyl-methyl-amide] | 0.01 µM |
| COc1cc2c(cc1-c1ccccn1)-c1c(-c3cccs3)nc(C(=O)N(C)C(C)(C)C)n1CC2 [Example 2b, 8-Methoxy-9-pyridin-2-yl-1-thiophen-2-yl-5,6-dihydro-imidazo[5,1-a]isoquinoline-3-carboxylic acid tert-butyl-methyl-amide] | 0.013 µM |
| C=Cc1cc2c(cc1CC(C)C)-c1c(-c3cccs3)nc(C(=O)N(C)C(C)(C)C)n1CC2 [Example 19d, 9-Isobutyl-1-thiophen-2-yl-8-vinyl-5,6-dihydro-imidazo[5,1-a]isoquinoline-3-carboxylic acid tert-butyl-methyl-amide] | 0.076 µM |
| CCc1cc2c(cc1CC(C)C)-c1c(-c3cccs3)nc(C(=O)N(C)C(C)(C)C)n1CC2 [Example 19e, 8-Ethyl-9-isobutyl-1-thiophen-2-yl-5,6-dihydro-imidazo[5,1-a]isoquinoline-3-carboxylic acid tert-butyl-methyl-amide] | 0.2 µM |
| COc1cc2c(cc1-c1cccc(N(C)C)c1)-c1c(-c3cccs3)nc(C(=O)N(C)C(C)(C)C)n1CC2 [Example 2l, 9-(3-Dimethylamino-phenyl)-8-methoxy-1-thiophen-2-yl-5,6-dihydro-imidazo[5,1-a]iso-quinoline-3-carboxylic acid tert-butyl-methyl-amide] | 0.009 µM |
| COc1cc2c(cc1-c1ccc3c(c1)OCO3)-c1c(-c3cccs3)nc(C(=O)N(C)C(C)(C)C)n1CC2 [Example 2r, 9-Benzo[1,3]dioxol-5-yl-8-methoxy-1-thiophen-2-yl-5,6-dihydro-imidazo[5,1-a]iso-quinoline-3-carboxylic acid tert-butyl-methyl-amide] | 0.167 µM |
| COc1cc2c(cc1-c1cccc(C(F)(F)F)c1)-c1c(-c3cccs3)nc(C(=O)N(C)C(C)(C)C)n1CC2 [Example 2e, 8-Methoxy-1-thiophen-2-yl-9-(3-trifluoromethyl-phenyl)-5,6-dihydro-imidazo[5,1-a]isoquinoline-3-carboxylic acid tert-butyl-methyl-amide] | 0.065 µM |
| COc1cc2ccn3c(C(=O)N(C)C(C)(C)C)nc(-c4cccs4)c3c2cc1C=C(C)C [Example 16e, 8-Methoxy-9-(2-methyl-propenyl)-1-thiophen-2-yl-imidazo[5,1-a]isoquinoline-3-carboxylic acid tert-butyl-methyl-amide] | 0.009 µM |
| COc1cc2c(cc1-c1cccc(N3CCOCC3)c1)-c1c(-c3cccs3)nc(C(=O)N(C)C(C)(C)C)n1CC2 [Example 2h, 8-Methoxy-9-(3-morpholin-4-yl-phenyl)-1-thiophen-2-yl-5,6-dihydro-imidazo[5,1-a]iso-quinoline-3-carboxylic acid tert-butyl-methyl-amide] | 0.002 µM |
| COc1cc2c(cc1C(=O)Nc1nncs1)-c1c(-c3cccs3)nc(C(=O)N(C)C(C)(C)C)n1CC2 [Example 3e, 8-Methoxy-1-thiophen-2-yl-5,6-dihydro-imidazo[5,1-a]isoquinoline-3,9-dicarboxylic acid 3-(tert-butyl-methyl-amide) 9-[1,3,4]thiadiazol-2-ylamide] | 0.003 µM |
| COc1cc2c(cc1NC(=O)[C@H](C)N)-c1c(-c3cccs3)nc(C(=O)N(C)C(C)(C)C)n1CC2 [Example 8, 9-((S)-2-Amino-propionylamino)-8-methoxy-1-thiophen-2-yl-5,6-dihydro-imidazo[5,1-a]isoquinoline-3-carboxylic acid tert-butyl-methyl-amide] | 0.049 µM |

Second part, the compound after the results:

| EC50 | SMILES |
| --- | --- |
| 0.002 µM | COc1cc2c(cc1C=C(C)C)-c1c(-c3cccs3)nc(C(=O)N(C)C(C)(C)C)n1CC2 [Example 36c, 8-Methoxy-9-(2-methyl-propenyl)-1-thiophen-2-yl-5,6-dihydro-imidazo[5,1-a]isoquinoline-3-carboxylic acid tert-butyl-methyl-amide] |
| 0.447 µM | COc1cccc(Oc2cc3c(cc2OC)CCn2c(C(=O)N(C)C(C)(C)C)nc(-c4cccs4)c2-3)c1 [Example 43b, 8-Methoxy-9-(3-methoxy-phenoxy)-1-thiophen-2-yl-5,6-dihydro-imidazo[5,1-a]isoquinoline-3-carboxylic acid tert-butyl-methyl-amide] |
| 0.417 µM | CCOc1ccc2c(c1)CCn1c(C(=O)N(C)C(C)(C)C)nc(-c3cccs3)c1-2 [Example 40c, 8-Ethoxy-1-thiophen-2-yl-5,6-dihydro-imidazo[5,1-a]isoquinoline-3-carboxylic acid tert-butyl-methyl-amide] |
| 0.033 µM | COc1cc2c(cc1-c1cccnc1)-c1c(C(C)(C)C)nc(C(=O)N(C)C(C)(C)C)n1CC2 [Example 44e, 1-tert-Butyl-8-methoxy-9-pyridin-3-yl-5,6-dihydro-imidazo[5,1-a]isoquinoline-3-carboxylic acid tert-butyl-methyl-amide] |
| 0.128 µM | COc1cc2c(cc1Oc1ccccc1)-c1c(-c3cccs3)nc(C(=O)N(C)C(C)(C)C)n1CC2 [Example 42b, 8-Methoxy-9-phenoxy-1-thiophen-2-yl-5,6-dihydro-imidazo[5,1-a]isoquinoline-3-carboxylic acid tert-butyl-methyl-amide] |
| 0.333 µM | COc1cc2c(cc1OC)-c1c(-c3cccs3)nc(C(=O)N3CCCC3C)n1CC2 (centres unmarked) [Example 24c, (2-Methyl-pyrrolidin-1-yl)-(9-methoxy-8-methoxy-1-thiophen-2-yl-5,6-dihydro-imidazo[5,1-a]isoquinolin-3-yl)-methanone] |
| 0.142 µM | COC(=O)NCCOc1cc2c(cc1OC)CCn1c(C(=O)N(C)C(C)(C)C)nc(-c3cccs3)c1-2 [Example 33, {2-[3-(tert-Butyl-methyl-carbamoyl)-8-methoxy-1-thiophen-2-yl-5,6-dihydro-imidazo[5,1-a]isoquinolin-9-yloxy]-ethyl}-carbamic acid methyl ester] |
| 0.013 µM | COc1cc2c(cc1CC(C)C)-c1c(-c3cncs3)nc(C(=O)N(C)C(C)(C)C)n1CC2 [Example 38, 9-Isobutyl-8-methoxy-1-thiazol-5-yl-5,6-dihydro-imidazo[5,1-a]isoquinoline-3-carboxylic acid tert-butyl-methyl-amide] |
| 0.021 µM | COc1cc2c(cc1OC(C)C)-c1c(-c3cccs3)nc(C(=O)N3CC4CC(CN(C(C)=O)C4)C3)n1CC2 [Example 29c, 1-[7-(9-Isopropoxy-8-methoxy-1-thiophen-2-yl-5,6-dihydro-imidazo[5,1-a]isoquinoline-3-carbonyl)-3,7-diaza-bicyclo[3.3.1]non-3-yl]-ethanone] |
| 0.005 µM | COc1cc2c(cc1OC(C)C)-c1c(-c3cccs3)nc(C(=O)N3CC4CC(C3)CN(C(=O)C3CCC3)C4)n1CC2 [Example 29d, (7-Cyclobutanecarbonyl-3,7-diaza-bicyclo[3.3.1]non-3-yl)-(9-isopropoxy-8-methoxy-1-thiophen-2-yl-5,6-dihydro-imidazo[5,1-a]isoquinolin-3-yl)-methanone] |
| 0.063 µM | CCC1CCCN1C(=O)c1nc(-c2cccs2)c2n1CCc1cc(OC)c(OC(C)C)cc1-2 (centres unmarked) [Example 23, (2-Ethyl-pyrrolidin-1-yl)-(9-isopropoxy-8-methoxy-1-thiophen-2-yl-5,6-dihydro-imidazo[5,1-a]isoquinolin-3-yl)-methanone] |
